Measured values published in US8920822B2, “Skin beautifier” (Megmilk Snow Brand Co., Ltd., priority 2004, dated 2014).

Assays:
CD-1 (ICR)-nu/nu mice [1] = assay: Moisture content of the tail skin of nude mice after 4 weeks of oral feeding (Corneometer); format: in vivo, mouse; conditions: for increase of the moisture content of the skin: end vs start of administration; for Increase Rate of Moisture: value at end of feeding with start = 100
Method: (§1) Effects of the skin beautifier according to the present invention were investigated by an animal test using nude mice.
(§2) A sphingomyelin raw material (Phospholac 500; manufactured by NZMP) containing 10% of sphingomyelins was dissolved in deionized water as shown in Table 1. The solution was heated to 50° C. and then mixed under stirring with an ultradisperser (ULTRA-TURRAX T-25; manufactured by IKA Japan) at 9500 rpm for 20 minutes to prepare Test Feeds 1 to 3.
(§3) Five-week old CD-1 (ICR)-nu/nu mice were divided into the following 4 test groups (10 mice in each group), namely, (Group A) a group receiving 10 g of physiological saline per kg of mouse body weight, (Group B) a group receiving 10 g of the Test Feed 1 per kg of mouse body weight, (Group C) a group receiving 10 g of the Test Feed 2 per kg of mouse body weight, and (Group D) a group receiving 10 g of the Test Feed 3 per kg of mouse body weight. Mice in all the groups were fed by orally administering the feed once daily by gavage feeding for 4 weeks. Moisture contents and transepidermal water losses in the tail skin of each mouse were measured at the start and the end of the feeding. Values at the end of the feeding (rates of increase) were calculated by assuming each of the values at the start of the feeding to be 100. The moisture contents of the skin and the transepidermal water losses were measured using Corneometer and Tewameter, respectively, which were manufactured by Courage+Khazaka.

CD-1 (ICR)-nu/nu mice [2] = assay: Transepidermal water loss in the tail skin of nude mice after 4 weeks of oral feeding (Tewameter); format: in vivo, mouse; conditions: for Increase Rate of Transepidermal Water Loss: value at end of feeding with start = 100; for increase of the transepidermal water loss: after 4-week administration
Method: as §1, §2, §3

[3] = Group B, Test Feed 1, sphingomyelin 2 mg/kg orally once daily for 4 weeks
[4] = Group C, Test Feed 2, sphingomyelin 5 mg/kg orally once daily for 4 weeks
[5] = Group D, Test Feed 3, sphingomyelin 10 mg/kg orally once daily for 4 weeks
[6] = oral administration, nude mice, covers moisture content and TEWL

sphingomyelin
increase of the moisture content of the skin (CD-1 (ICR)-nu/nu mice [1]; Group B (printed Group 13), 2 mg/kg orally): about 1.5 times | Increase Rate of Moisture (CD-1 (ICR)-nu/nu mice [1]; [3]): 155% | increase of the moisture content of the skin (CD-1 (ICR)-nu/nu mice [1]; Group C, 5 mg/kg orally): about 2.5 times | Increase Rate of Moisture (CD-1 (ICR)-nu/nu mice [1]; [4]): 245% | increase of the moisture content of the skin (CD-1 (ICR)-nu/nu mice [1]; Group D, 10 mg/kg orally): about 2.5 times | Increase Rate of Moisture (CD-1 (ICR)-nu/nu mice [1]; [5]): 253% | dose at which the effects (skin moisture increased, transepidermal water loss decreased) were observed (CD-1 (ICR)-nu/nu mice [1]; [6]): ≥ 2 mg per kg of mouse body weight | dose at which the effects (skin moisture increased, transepidermal water loss decreased) were significant (CD-1 (ICR)-nu/nu mice [1]; [6]): ≥ 5 mg per kg of mouse body weight | Increase Rate of Transepidermal Water Loss (CD-1 (ICR)-nu/nu mice [2]; [3]): 152% | increase of the transepidermal water loss (CD-1 (ICR)-nu/nu mice [2]; Group C, 5 mg/kg orally): about 1.4 times | Increase Rate of Transepidermal Water Loss (CD-1 (ICR)-nu/nu mice [2]; [4]): 137% | increase of the transepidermal water loss (CD-1 (ICR)-nu/nu mice [2]; Group D, 10 mg/kg orally): about 1.4 times | Increase Rate of Transepidermal Water Loss (CD-1 (ICR)-nu/nu mice [2]; [5]): 140%
